Eight molecules from US7863444B2, “4-aminopyrrolopyrimidines as kinase inhibitors” (Abbott Laboratories, priority 1997, dated 2011) can be followed below.

As usually defined, the melting point is the temperature, or range, at which the solid turns liquid. `CC(C)n1cc(-c2ccc(C=O)cc2)c2c(N)ncnc21` [Example 160, 4-(4-amino-7-isopropyl-7H-pyrrolo[2,3-d]pyrimidin-5-yl)benzaldehyde] yielded a melting point of 198 to 200 °C.
For `CC(C)n1cc(-c2ccc(Oc3ccccc3)c(CO)c2)c2c(N)ncnc21` [Example 163, 5-[4-amino-7-isopropyl-7H-pyrrolo[2,3-d]pyrimidin-5-yl]-2-phenoxybenzylalcohol] the value was 92 to 94 °C; for `NCc1c(-c2ccc(Oc3ccccc3)cc2)c2c(N)ncnc2n1C1CCCC1` [Example 165, 6-aminomethyl-7-cyclopentyl-5-(4-phenoxyphenyl)-7H-pyrrolo[2,3-d]pyrimidin-4-ylamine], 196.5 to 197.5 °C.
For `CC(C)(C)n1cc(-c2ccc(N(C=O)c3ccccc3)cc2)c2cncnc21` [Example 166, 7-tertbutyl-5-(N-formyl-4-phenylaminophenyl)pyrrolo[2,3-d]pyrimidine] the value was 163 to 164 °C; for `Nc1ncnc2c1c(-c1ccc(Oc3ccc(OCCO)cc3)cc1)cn2CCO` [Example 169, 7-(2-Hydroxyethyl)-5-{4-[4-(2-hydroxyethoxy)phenoxy]phenyl}pyrrolo[2,3-d]-pyrimidin-4-ylamine], 166 to 166.5 °C; for `CC(C)S(=O)(=O)n1cc(-c2ccc(Oc3ccccc3)cc2)c2c(N)ncnc21` [Example 173, 7-isopropylsulphonyl-5-(4-phenoxyphenyl)-7H-pyrrolo[2,3-d]pyrimidin-4-ylamine], 162 to 162.5 °C.
For `Nc1ncnc2c1c(-c1ccc(Oc3ccccc3)cc1)cn2C1CC2CC(O)CC2C1` (centres unmarked) [Example 174, 7-[4-amino-5-(4-phenoxyphenyl)-7H-pyrrolo[2,3-d]pyrimidin-7-yl]bicyclo[3.3.0]octan-3-ol] the value was 193 to 194 °C; for `Nc1ncnc2c1c(-c1ccc(Oc3ccccc3)cc1)cn2C1CCC(O)CC1` (centres unmarked) [Example 175, 4-[4-amino-5-(4-phenoxyphenyl)-7H-pyrrolo[2,3-d]pyrimidin-7-yl]cyclohexanol], 199 to 200 °C.
